According to patent publication US10428080B2, “TBK/IKK inhibitor compounds and uses thereof” (Merck Patent GmbH, priority 2015, dated 2019):
Structures can show the parent of a compound that is named as a salt.

Legend:
TBK1 = target: T1, TBK1 (Homo sapiens, UniProt Q9UHD2); experiment: TBK Biochemical Assay; details: read-out: TBK1 IC50
T1 sequence (Q9UHD2 1-729): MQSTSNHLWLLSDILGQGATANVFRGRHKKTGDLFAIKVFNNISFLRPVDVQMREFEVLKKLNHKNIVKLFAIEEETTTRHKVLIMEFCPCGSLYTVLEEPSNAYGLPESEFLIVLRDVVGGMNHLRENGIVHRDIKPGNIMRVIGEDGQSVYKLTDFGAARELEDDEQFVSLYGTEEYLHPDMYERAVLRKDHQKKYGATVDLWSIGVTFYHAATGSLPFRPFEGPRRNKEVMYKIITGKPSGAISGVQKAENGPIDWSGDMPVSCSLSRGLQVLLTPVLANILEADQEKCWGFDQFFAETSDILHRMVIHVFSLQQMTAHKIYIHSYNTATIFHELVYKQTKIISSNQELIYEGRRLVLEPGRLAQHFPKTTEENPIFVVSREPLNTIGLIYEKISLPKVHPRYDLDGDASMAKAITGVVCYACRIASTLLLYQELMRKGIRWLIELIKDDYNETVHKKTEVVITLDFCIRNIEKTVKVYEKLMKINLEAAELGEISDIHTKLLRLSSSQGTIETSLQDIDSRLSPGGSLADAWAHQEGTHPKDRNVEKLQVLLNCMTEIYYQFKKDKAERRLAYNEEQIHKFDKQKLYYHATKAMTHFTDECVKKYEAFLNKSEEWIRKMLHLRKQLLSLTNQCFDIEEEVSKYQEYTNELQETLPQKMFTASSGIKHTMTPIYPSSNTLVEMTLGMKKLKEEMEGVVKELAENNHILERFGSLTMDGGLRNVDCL
Procedure: Example 482: TBK Biochemical Assay
(§1) Test compounds were transferred into Labcyte polypropylene 384 well plates (P055-25) and diluted to 3 mM using DMSO. 3 mM test compounds were dispensed using Labcyte ECHO dose response module into Greiner 784075 plates (columns 3-12 and 13-22, 10 point 1:4) so that high concentration was 30 uM final. 100 uM of a reference compound (1 uM final high concentration). Backfilling was performed if necessary so that all wells contain 1% DMSO final: […]
(§2) add 75 nl DMSO/well into columns 1, 2 and 24 using Labcyte Echo. add 75 nl 1.0 mM staurosporine/well into column 23 using Labcyte Echo ([…]) add 4.5 ul enzyme/well using multidrop dispenser add 3 ul substrate/well using multidrop dispenser incubate at 25° C. in Heidolph incubator for 90 min. add 7.5 ul 2× stop buffer using multidrop dispenser read on labchip ez reader II using TBK1.job
(§3) Raw data files were opened in the Caliper LabChip Reviewer program (Version 3.0.265.0 SP2) and peak assignments were adjusted to reflect “substrate first” with the software's post-run analysis options. A spline-fit baseline was applied using the software's analysis algorithm.

IKKε = target: T2, IKKε (Homo sapiens, UniProt Q14164); experiment: IKKe Biochemical Assay; details: read-out: IKKε IC50
T2 sequence (Q14164 1-716): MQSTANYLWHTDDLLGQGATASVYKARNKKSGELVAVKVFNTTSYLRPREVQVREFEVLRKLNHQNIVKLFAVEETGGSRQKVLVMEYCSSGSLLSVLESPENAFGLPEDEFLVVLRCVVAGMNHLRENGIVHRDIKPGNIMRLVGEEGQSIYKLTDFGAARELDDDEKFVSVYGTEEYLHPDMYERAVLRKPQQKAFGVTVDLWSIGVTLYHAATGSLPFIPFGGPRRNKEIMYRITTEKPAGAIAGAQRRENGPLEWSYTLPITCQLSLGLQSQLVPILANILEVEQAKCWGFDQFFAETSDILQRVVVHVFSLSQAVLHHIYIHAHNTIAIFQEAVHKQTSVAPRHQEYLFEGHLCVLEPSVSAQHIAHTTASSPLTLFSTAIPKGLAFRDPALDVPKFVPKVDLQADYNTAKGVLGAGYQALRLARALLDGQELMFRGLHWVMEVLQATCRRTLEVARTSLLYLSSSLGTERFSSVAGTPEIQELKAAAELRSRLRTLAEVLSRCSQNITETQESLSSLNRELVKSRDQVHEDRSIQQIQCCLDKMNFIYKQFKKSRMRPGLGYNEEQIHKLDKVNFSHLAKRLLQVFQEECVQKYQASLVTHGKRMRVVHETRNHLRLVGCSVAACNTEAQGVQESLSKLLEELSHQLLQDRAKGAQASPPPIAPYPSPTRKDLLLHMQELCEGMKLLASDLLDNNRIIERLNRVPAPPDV
Procedure: as §1, with “(Greiner” for “Greiner”
as §2, with “C.” for “C. in Heidolph incubator”, “buffer” for “buffer using multidrop dispenser”, “IKKε. job” for “TBK1.job”
as §3

| IC50 (TBK1) | IC50 (IKKε) | SMILES |
| --- | --- | --- |
| > 5 µM | > 5 µM | N#Cc1cc(-c2ccnc3cc(-c4ccc(C(=O)O)cc4)oc23)ccc1Oc1ccncc1 [Compound 192, 4-{7-[3-Cyano-4-(pyridin-4-yloxy)-phenyl]-furo[3,2-b]pyridin-2-yl}-benzoic acid] |
| 0.1 to 1 µM | 0.1 to 1 µM | CN(C)C(=O)c1ccc(-c2cc3nccc(-c4ccc(CN5CCOCC5)c(C#N)c4)c3o2)cc1 [Compound 222, 4-(7-(3-cyano-4-(morpholinomethyl)phenyl)furo[3,2-b]pyridin-2-yl)-N,N-dimethylbenzamide] |
| < 0.1 µM | < 0.1 µM | COc1cc(C(=O)N2CC3CC2CO3)ccc1-c1cc2nccc(-c3ccc(NC4CCOCC4)c(C#N)c3)c2o1 (centres unmarked) [Compound 85, 5-{2-[2-Methoxy-4-(2-oxa-5-aza-bicyclo[2.2.1]heptane-5-carbonyl)-phenyl]-furo[3,2-b]pyridin-7-yl}-2-(tetrahydro-pyran-4-ylamino)-benzonitrile] |
| < 0.1 µM | < 0.1 µM | COc1cc(C(=O)N2CC3CCC(O)C3C2)ccc1-c1cc2nccc(-c3ccc(NC4CCOCC4)c(C#N)c3)c2o1 (centres unmarked) [Compound 96] |
| < 0.1 µM | < 0.1 µM | CNC(=O)c1ccc(-c2cc3nccc(-c4ccc(OC5CCOCC5)c(C#N)c4)c3o2)c(OC)c1 [Compound 100, 4-{7-[3-Cyano-4-(tetrahydro-pyran-4-yloxy)-phenyl]-furo[3,2-b]pyridin-2-yl}-3-methoxy-N-methyl-benzamide] |
| < 0.1 µM | < 0.1 µM | COc1cc(C(=O)N[C@@H]2CCNC[C@@H]2F)ccc1-c1cc2nccc(-c3ccc(NC4CCOCC4)c(C#N)c3)c2o1 (single isomer, unassigned) [Compound 251, 4-(7-(3-cyano-4-(tetrahydro-2H-pyran-4-ylamino)phenyl)furo[3,2-b]pyridin-2-yl)-N-(3-fluoropiperidin-4-yl)-3-methoxybenzamide hydrochloride] |
| < 0.1 µM | < 0.1 µM | CCN(CC)C(=O)c1ccc(-c2cc3nccc(-c4ccc(NC5CCOCC5)c(C#N)c4)c3o2)c(OC)c1 [Compound 259, 4-(7-(3-cyano-4-(tetrahydro-2H-pyran-4-ylamino)phenyl)furo[3,2-b]pyridin-2-yl)-N,N-diethyl-3-methoxybenzamide] |
| < 0.1 µM | < 0.1 µM | COc1cc(C(=O)N(C)CCCO)ccc1-c1cc2nccc(-c3ccc(NC4CCOCC4)c(C#N)c3)c2o1 [Compound 261, 4-(7-(3-cyano-4-(tetrahydro-2H-pyran-4-ylamino)phenyl)furo[3,2-b]pyridin-2-yl)-N-(3-hydroxypropyl)-3-methoxy-N-methylbenzamide] |
| 1 to 5 µM | 1 to 5 µM | COc1cc(C(=O)N(C)CCO)cnc1-c1cc2ncc(C)c(-c3ccc(OC4CCOCC4)c(C#N)c3)c2o1 [Compound 330, 6-(7-(3-cyano-4-(tetrahydro-2H-pyran-4-yloxy)phenyl)-6-methylfuro[3,2-b]pyridin-2-yl)-N-(2-hydroxyethyl)-5-methoxy-N-methylnicotinamide] |
| < 0.1 µM | < 0.1 µM | N#Cc1cc(-c2ccnc3cc(-c4ccc(C(=O)O)cc4)oc23)ccc1N1CC[C@H](F)C1 [Compound 107, 4-{7-[3-Cyano-4-((S)-3-fluoro-pyrrolidin-1-yl)-phenyl]-furo[3,2-b]pyridin-2-yl}-benzoic acid] |
| < 0.1 µM | < 0.1 µM | COc1cc(C(=O)N2C[C@H]3C[C@@H](O)C[C@H]3C2)ccc1-c1cc2nccc(-c3ccc(NC4CCOCC4)c(C#N)c3)c2o1 [Compound 81, 5-{2-[4-((3aR,5R,6aS)-5-Hydroxy-hexahydro-cyclopenta[c]pyrrole-2-carbonyl)-2-methoxy-phenyl]-furo[3,2-b]pyridin-7-yl}-2-(tetrahydro-pyran-4-ylamino)-benzonitrile] |
| > 5 µM | 1 to 5 µM | CC1CC(Oc2ccc(-c3ccnc4cc(-c5ccc(C(=O)O)cc5)oc34)cc2C#N)CC(C)O1 (centres unmarked) [Compound 189] |
| 0.1 to 1 µM | 0.1 to 1 µM | COc1cc(C(=O)N2CCCCC2)ncc1-c1cc2nccc(-c3cc(C#N)c(OC4CCOCC4)cn3)c2o1 [Compound 383, 2-(2-[4-methoxy-6-[(piperidin-1-yl)carbonyl]pyridin-3-yl]furo[3,2-b]pyridin-7-yl)-5-(oxan-4-yloxy)pyridine-4-carbonitrile] |
| < 0.1 µM | < 0.1 µM | COc1cc(C(=O)N(C)C)ccc1-c1cc2nccc(-c3cc(F)c(NC4CCOCC4)c(C#N)c3)c2o1 [Compound 236, 4-(7-(3-cyano-5-fluoro-4-(tetrahydro-2H-pyran-4-ylamino)phenyl)furo[3,2-b]pyridin-2-yl)-3-methoxy-N,N-dimethylbenzamide] |
| < 0.1 µM | < 0.1 µM | CN(C)C(=O)c1ccc(-c2cc3nccc(-c4ccc(N5CC[C@H](F)C5)c(C#N)c4)c3o2)nc1 (single isomer, unassigned) [Compound 273, 6-(7-(3-cyano-4-(3-fluoropyrrolidin-1-yl)phenyl)furo[3,2-b]pyridin-2-yl)-N,N-dimethylnicotinamide hydrochloride] |
| > 5 µM | > 5 µM | COc1cc(C(=O)N(C)C)ccc1-c1cc2nccc(Nc3ccc(OC4CCOCC4)c(C#N)c3)c2o1 [Compound 399, 4-(7-[[3-cyano-4-(oxan-4-yloxy)phenyl]amino]furo[3,2-b]pyridin-2-yl)-3-methoxy-N,N-dimethylbenzamide] |
| 1 to 5 µM | > 5 µM | CN(CCO)C(=O)c1ccc(-c2cc3ncc(Cl)c(-c4ccc(OC5CCOCC5)c(C#N)c4)c3o2)c(F)c1 [Compound 267, 4-(6-chloro-7-(3-cyano-4-(tetrahydro-2H-pyran-4-yloxy)phenyl)furo[3,2-b]pyridin-2-yl)-3-fluoro-N-(2-hydroxyethyl)-N-methylbenzamide] |
| < 0.1 µM | < 0.1 µM | COc1cc(C(=O)N(C)C)ccc1-c1cc2nccc(-c3ccc(CN4CCOCC4)c(C#N)c3)c2o1 [Compound 234, 4-(7-(3-cyano-4-(morpholinomethyl)phenyl)furo[3,2-b]pyridin-2-yl)-3-methoxy-N,N-dimethylbenzamide] |
| < 0.1 µM | < 0.1 µM | COc1cc(C(=O)N[C@@H]2CCNC[C@@H]2F)ccc1-c1cc2nccc(-c3cc(F)c(NC4CCOCC4)c(C#N)c3)c2o1 (single isomer, unassigned) [Compound 253, 4-(7-(3-cyano-5-fluoro-4-(tetrahydro-2H-pyran-4-ylamino)phenyl)furo[3,2-b]pyridin-2-yl)-N-(3-fluoropiperidin-4-yl)-3-methoxybenzamide hydrochloride] |
